EC50 data for 25 compounds are collected here from patent publication US10196346B2, “Substituted acethydrazide derivative, preparation method and use thereof” (Institute of Pharmacology and Toxicology Academy of …, priority 2014, dated 2019).

SMILES strings stand for the structures.

The assay deals with EGFP-HIF-1α fusion protein (Homo sapiens (Human), UniProt Q16665). The experiment in a line: Stabilization of HIF-1α in EGFP-HIF-1α-CHOhIR cell model (nuclear EGFP fluorescence imaging). In kind it is cell-based. To be noted: CHOhIR cells stably expressing EGFP-HIF-1α; 3 h incubation; 0.03-30 μM; bipyridine 100 μM = 100% activation; read-out: Effects in stabilization of HIF-1α activity (EC50). The protocol:
CHOhIR cells (purchased from Thermo Fisher Scientific) which stably expressed EGFP-HIF-1α fusion protein were cultured under 37° C. and 5% CO2 in F12 culture solution containing 0.5 mg/ml G418 and 10% FBS, transplanted in an amount of 0.8×10^4 cells/100 μl/well on a 96-well culture plate that could be subjected to fluorescence detection, and cultured under 37° C. and 5% CO2 for 18-24 h. […] After the cells were incubated under 37° C. and 5% CO2 for 3 h, 12% formaldehyde in amount of 100 μl/well was added, fixation was carried out at room temperature for 30 min. Culture media was discarded, and the plate was washed with PBS twice, PBS containing 1 μM Hoechst was used, staining was performed at room temperature for 1 h. Detection was performed by IN Cell Analyzer 1000 live cell imaging system. Detection conditions were: 20× objective lens, excitation wavelength Ex=460 nm, emission wavelength […] to detect blue-fluorescence of cell nucleus passage; excitation wavelength Ex=475 nm, emission wavelength Em=535 nm, exposure 500 ms to detect green-fluorescence EGFP of cytoplasm passage, and pictures were taken continuously in 5 fields of view for each well. IN Cell Analyzer 1000 Multitarget Analysis Module of GE Company was used for analyzing aggregation of green-fluorescence of HIF-1α in cell nucleus, and BP100 μM treatment group was used as 100% activation of HIF-1α.

One may read the EC50 as the concentration that produces a half-maximal response. As to `COc1cccc(/C=N/NC(=O)CN(C)CCN(C)Cc2cccc3ccccc23)c1O` [Example 1, (E)-N′-(3-methoxy-2-hydroxybenzal)-2-{N-{2-[N-(naphthalen-1-yl-methylene)-N-methylamino]ethyl}N-methylamino}acethydrazide], the EC50 came to 2.29 ± 0.27 µM. Turning to `CN(CCN(C)Cc1cccc2ccccc12)CC(=O)N/N=C/c1cc(C(C)(C)C)cc(C(C)(C)C)c1O` [Example 2, (E)-N′-(3,5-di-tert-butyl-2-hydroxybenzal)-2-{N-{2-[N-(naphthalen-1-yl-methylene)-N-methylamino]ethyl}N-methylamino}acethydrazide], the EC50 was determined as 17.8 ± 4.81 µM. Turning to `CCOc1cccc(/C=N/NC(=O)CN(C)CCN(C)Cc2cccc3ccccc23)c1O` [Example 3, (E)-N′-(3-ethoxy-2-hydroxybenzal)-2-{N-{2-[N-(naphthalen-1-yl-methylene)-N-methylamino]ethyl}N-methylamino}acethydrazide], the EC50 stood at 2.11 ± 0.85 µM.

As to `CN(CCN(C)Cc1cccc2ccccc12)CC(=O)N/N=C/c1c(O)ccc2ccccc12` [Example 4, (E)-N′-[(2-hydroxynaphthalen-1-yl)methylene]-2-{N-{2-[N-(naphthalen-1-yl-methylene)-N-methylamino]ethyl}N-methylamino}acethydrazide], the EC50 was found to be 0.83 ± 0.18 µM. Consider `CCN(CC)c1ccc(/C=N/NC(=O)CN(C)CCN(C)Cc2cccc3ccccc23)c(O)c1` [Example 5, (E)-N′-(4-N,N-diethylamino-2-hydroxybenzal)-2-{N-{2-[N-(naphthalen-1-yl-methylene)-N-methylamino]ethyl}N-methylamino}acethydrazide], for which the EC50 was found to be 0.78 ± 0.14 µM.

On to `CN(CCN(C)Cc1cccc(C(F)(F)F)c1)CC(=O)N/N=C/c1cc(C(C)(C)C)cc(C(C)(C)C)c1O` [Example 8, (E)-N′-(3,5-di-tert-butyl-2-hydroxybenzal)-2-{N-{2-[N-(3-trifluoromethylbenzyl)-N-methylamino]ethyl}N-methylamino}acethydrazide], for which the EC50 was found to be 5.23 ± 1.39 µM. On to `CCN(CC)c1ccc(/C=N/NC(=O)CN(C)CCN(C)Cc2cccc(C(F)(F)F)c2)c(O)c1` [Example 10, (E)-N′-(4-N,N-diethylamino-2-hydroxybenzal)-2-{N-{2-[N-(3-trifluoromethylbenzyl)-N-methylamino]ethyl}N-methylamino}acethydrazide], for which the EC50 came to 0.6 ± 0.18 µM. Consider `CN(CCN(C)Cc1cccc(C(F)(F)F)c1)CC(=O)N/N=C/c1cccc(O)c1O` [Example 11, (E)-N′-(2,3-dihydroxybenzal)-2-{N-{2-[N-(3-trifluoromethylbenzyl)-N-methylamino]ethyl}N-methylamino}acethydrazide], for which the EC50 stood at 0.17 ± 0.04 µM. With `CCOc1cccc(/C=N/NC(=O)CN(C)CCN(C)Cc2ccc(C(C)C)cc2)c1O` [Example 13, (E)-N′-[(3-ethoxy-2-hydroxybenzal)methylene]-2-{N-{2-[N-(4-isopropylbenzyl)-N-methylamino]ethyl}N-methylamino}acethydrazide], the EC50 amounted to 0.8 ± 0.19 µM.

Regarding `CC(C)c1ccc(CN(C)CCN(C)CC(=O)N/N=C/c2c(O)ccc3ccccc23)cc1` [Example 14, (E)-N′-[(2-hydroxynaphthalen-1-yl)methylene]-2-{N-{2-[N-(4-isopropylbenzyl)-N-methylamino]ethyl}N-methylamino}acethydrazide], the EC50 was determined as 1.02 ± 0.34 µM. Take `CC(C)c1ccc(CN(C)CCN(C)CC(=O)N/N=C/c2cc(C(C)(C)C)cc(C(C)(C)C)c2O)cc1` [Example 15, (E)-N′-(3,5-di-tert-butyl-2-hydroxybenzal)-2-{N-{2-[N-(4-isopropylbenzyl)-N-methylamino]ethyl}N-methylamino}acethydrazide]: the EC50 was 11.2 ± 2.87 µM. The figure for `CC(C)c1ccc(CN(C)CCN(C)CC(=O)N/N=C/c2cccc(O)c2O)cc1` [Example 17, (E)-N′-(2,3-dihydroxybenzal)-2-{N-{2-[N-(4-isopropylbenzyl)-N-methylamino]ethyl}N-methylamino}acethydrazide] is 0.56 ± 0.15 µM; for `CC(C)c1ccc(CN(C)CCN(C)CC(=O)N/N=C/c2cc(Br)ccc2O)cc1` [Example 18, (E)-N′-(3-bromo-6-hydroxybenzal)-2-{N-{2-[N-(4-isopropylbenzyl)-N-methylamino]ethyl}N-methylamino}acethydrazide] it is 2.28 ± 0.67 µM. With `COc1cccc(CN(C)CCN(C)CC(=O)N/N=C/c2cc(C(C)(C)C)cc(C(C)(C)C)c2O)c1` [Example 22, (E)-N′-(3,5-di-tert-butyl-2-hydroxybenzal)-2-{N-{2-[N-(3-methoxybenzyl)-N-methylamino]ethyl}N-methylamino}acethydrazide], the EC50 was found to be 2.77 ± 0.31 µM. As for `CCN(CC)c1ccc(/C=N/NC(=O)CN(C)CCN(C)Cc2cccc(OC)c2)c(O)c1` [Example 23, (E)-N′-(4-N,N-diethylamino-2-hydroxybenzal)-2-{N-{2-[N-(3-methoxybenzyl)-N-methylamino]ethyl}N-methylamino}acethydrazide], the EC50 stood at 0.76 ± 0.15 µM. Regarding `COc1cccc(CN(C)CCN(C)CC(=O)N/N=C/c2cccc(O)c2O)c1` [Example 24, (E)-N′-(2,3-dihydroxybenzal)-2-{N-{2-[N-(3-methoxybenzyl)-N-methylamino]ethyl}N-methylamino}acethydrazide], the EC50 is 0.82 ± 0.09 µM.

With `COc1cccc(CN(C)CCN(C)CC(=O)N/N=C/c2cc(Br)ccc2O)c1` [Example 25, (E)-N′-(3-bromo-6-hydroxybenzal)-2-{N-{2-[N-(3-methoxybenzyl)-N-methylamino]ethyl}N-methylamino}acethydrazide], the EC50 was found to be 7.19 ± 1.27 µM. Take `CN(CCN(C)Cc1ccc(C#N)cc1)CC(=O)N/N=C/c1c(O)ccc2ccccc12` [Example 26, (E)-N′-[(2-hydroxynaphthalen-1-yl)methylene]-2-{N-{2-[N-(4-cyanobenzyl)-N-methylamino]ethyl}N-methylamino}acethydrazide]: the EC50 was found to be 0.98 ± 0.1 µM. For `CN(CCN(C)Cc1ccc(C#N)cc1)CC(=O)N/N=C/c1cc(C(C)(C)C)cc(C(C)(C)C)c1O` [Example 27, (E)-N′-(3,5-di-tert-butyl-2-hydroxybenzal)-2-{N-{2-[N-(4-cyanobenzyl)-N-methylamino]ethyl}N-methylamino}acethydrazide], the EC50 worked out at 7.75 ± 1.33 µM.

For the compound `COc1cccc(/C=N/NC(=O)CN(C)CCN(C)Cc2ccc(C#N)cc2)c1O` [Example 28, (E)-N′-(3-methoxy-2-hydroxybenzal)-2-{N-{2-[N-(4-cyanobenzyl)-N-methylamino]ethyl}N-methylamino}acethydrazide], the EC50 came out at 8.42 ± 3.15 µM. For the compound `CCOc1cccc(/C=N/NC(=O)CN(C)CCN(C)Cc2ccc(C#N)cc2)c1O` [Example 29, (E)-N′-(3-ethoxy-2-hydroxybenzal)-2-{N-{2-[N-(4-cyanobenzyl)-N-methylamino]ethyl}N-methylamino}acethydrazide], the EC50 is 2.77 ± 0.39 µM. As for `CCN(CC)c1ccc(/C=N/NC(=O)CN(C)CCN(C)Cc2ccc(C#N)cc2)c(O)c1` [Example 30, (E)-N′-(4-N,N-diethylamino-2-hydroxybenzal)-2-{N-{2-[N-(4-cyanobenzyl)-N-methylamino]ethyl}N-methylamino}acethydrazide], the EC50 turned out to be 0.53 ± 0.02 µM. For `COc1cccc(/C=N/NC(=O)CN(C)CCN(C)Cc2ccc(C(C)(C)C)cc2)c1O` [Example 31, (E)-N′-(3-methoxy-2-hydroxybenzal)-2-{N-{2-[N-(4-tert-butylbenzyl)-N-methylamino]ethyl}N-methylamino}acethydrazide], the EC50 is 2.76 ± 0.78 µM. With `CCOc1cccc(/C=N/NC(=O)CN(C)CCN(C)Cc2ccc(C(C)(C)C)cc2)c1O` [Example 32, (E)-N′-(3-ethoxy-2-hydroxybenzal)-2-{N-{2-[N-(4-tert-butylbenzyl)-N-methylamino]ethyl}N-methylamino}acethydrazide], the EC50 is 1.86 ± 0.57 µM. Consider `CCN(CC)c1ccc(/C=N/NC(=O)CN(C)CCCN(C)Cc2ccc(C(C)(C)C)cc2)c(O)c1` [Example 33, (E)-N′-(4-N,N-diethylamino-2-hydroxybenzal)-2-{N-{3-[N-(4-tert-butylbenzyl)-N-methylamino]propyl}N-methylamino}acethydrazide], for which the EC50 came out at 0.13 ± 0.02 µM.
